Measured values published in the NIST ThermoML archive (doi:10.1021/je034017j).

Assay: xn = mol fraction of the nth substance listed
Conditions: 101 kPa, Liquid

CCCCCCO [hexan-1-ol] + CCCCCCCC
Conditions	kinematic viscosity [m2/s]	mass density [kg/m3]
293.15 K, x2 = 0	6.61e-06	818.84
293.15 K, x2 = 0.0618	5.49e-06	809.74
293.15 K, x2 = 0.086	–	806.25
293.15 K, x2 = 0.1114	4.74e-06	802.62
293.15 K, x2 = 0.1597	–	795.86
293.15 K, x2 = 0.1891	–	791.83
293.15 K, x2 = 0.1928	3.74e-06	791.32
293.15 K, x2 = 0.2346	–	785.68
293.15 K, x2 = 0.3022	2.75e-06	776.82
293.15 K, x2 = 0.4039	2.08e-06	764.07
293.15 K, x2 = 0.495	1.67e-06	753.22
293.15 K, x2 = 0.4994	–	752.71
293.15 K, x2 = 0.6088	1.31e-06	740.42
293.15 K, x2 = 0.715	1.08e-06	729.21
293.15 K, x2 = 0.7991	–	720.79
293.15 K, x2 = 0.8086	9.47e-07	719.86
293.15 K, x2 = 0.8381	–	717.02
293.15 K, x2 = 0.8767	–	713.37
293.15 K, x2 = 0.9078	8.43e-07	710.5
293.15 K, x2 = 0.9272	–	708.75
293.15 K, x2 = 0.9458	8.03e-07	707.09
303.15 K, x2 = 0	4.88e-06	811.56
303.15 K, x2 = 0.0233	–	808.05
303.15 K, x2 = 0.051	–	803.93
303.15 K, x2 = 0.086	3.85e-06	798.81
303.15 K, x2 = 0.1189	–	794.07
303.15 K, x2 = 0.1308	3.41e-06	792.38
303.15 K, x2 = 0.1581	–	788.53
303.15 K, x2 = 0.188	2.94e-06	784.37
303.15 K, x2 = 0.1922	–	783.8
303.15 K, x2 = 0.2352	–	777.94
303.15 K, x2 = 0.2632	–	774.2
303.15 K, x2 = 0.308	2.15e-06	768.33
303.15 K, x2 = 0.369	–	760.56
303.15 K, x2 = 0.3936	1.75e-06	757.47
303.15 K, x2 = 0.4152	–	754.82
303.15 K, x2 = 0.4508	–	750.49
303.15 K, x2 = 0.4994	1.38e-06	744.75
303.15 K, x2 = 0.5249	–	741.79
303.15 K, x2 = 0.578	–	735.78
303.15 K, x2 = 0.5852	1.17e-06	734.98
303.15 K, x2 = 0.6255	–	730.55
303.15 K, x2 = 0.7026	9.66e-07	722.36
303.15 K, x2 = 0.7143	–	721.15
303.15 K, x2 = 0.774	–	715.1
303.15 K, x2 = 0.7909	–	713.42
303.15 K, x2 = 0.8042	8.42e-07	712.11
303.15 K, x2 = 0.8532	–	707.39
303.15 K, x2 = 0.8767	7.73e-07	705.17
303.15 K, x2 = 0.9009	–	702.91
303.15 K, x2 = 0.9272	7.36e-07	700.52
303.15 K, x2 = 0.947	–	698.76
313.15 K, x2 = 0	3.69e-06	804.28
313.15 K, x2 = 0.0229	–	800.79
313.15 K, x2 = 0.0502	–	796.68
313.15 K, x2 = 0.0646	3.13e-06	794.53
313.15 K, x2 = 0.0825	–	791.88
313.15 K, x2 = 0.1067	2.81e-06	788.35
313.15 K, x2 = 0.1205	–	786.35
313.15 K, x2 = 0.1569	–	781.14
313.15 K, x2 = 0.2007	2.24e-06	774.99
313.15 K, x2 = 0.2441	–	769.04
313.15 K, x2 = 0.2976	1.78e-06	761.89
313.15 K, x2 = 0.3132	–	759.85
313.15 K, x2 = 0.3441	–	755.84
313.15 K, x2 = 0.3882	1.46e-06	750.23
313.15 K, x2 = 0.3938	–	749.53
313.15 K, x2 = 0.4703	–	740.16
313.15 K, x2 = 0.4916	1.18e-06	737.63
313.15 K, x2 = 0.4949	–	737.24
313.15 K, x2 = 0.5873	1e-06	726.62
313.15 K, x2 = 0.6023	–	724.95
313.15 K, x2 = 0.6746	–	717.11
313.15 K, x2 = 0.6964	–	714.81
313.15 K, x2 = 0.7108	8.36e-07	713.3
313.15 K, x2 = 0.757	–	708.56
313.15 K, x2 = 0.7619	–	708.06
313.15 K, x2 = 0.7893	7.56e-07	705.32
313.15 K, x2 = 0.8428	–	700.08
313.15 K, x2 = 0.8748	–	697.03
313.15 K, x2 = 0.9109	6.67e-07	693.67
313.15 K, x2 = 0.9297	–	691.97
313.15 K, x2 = 0.9599	6.41e-07	689.33

CCCCC(=O)OC [methyl pentanoate] + CCCCCCO
Capillary tube (Ostwald / Ubbelohde) method
Conditions	kinematic viscosity [m2/s]
293.15 K, x1 = 0.085	4.728e-06
293.15 K, x1 = 0.1145	4.25e-06
293.15 K, x1 = 0.1854	3.367e-06
293.15 K, x1 = 0.2862	2.527e-06
293.15 K, x1 = 0.4123	1.87e-06
293.15 K, x1 = 0.5087	1.533e-06
293.15 K, x1 = 0.6157	1.256e-06
293.15 K, x1 = 0.6835	1.129e-06
293.15 K, x1 = 0.7846	9.82e-07
293.15 K, x1 = 0.9071	8.57e-07
293.15 K, x1 = 0.9274	8.42e-07
293.15 K, x1 = 1	8e-07
303.15 K, x1 = 0.0771	3.701e-06
303.15 K, x1 = 0.1183	3.251e-06
303.15 K, x1 = 0.192	2.619e-06
303.15 K, x1 = 0.2983	1.994e-06
303.15 K, x1 = 0.4502	1.436e-06
303.15 K, x1 = 0.4593	1.412e-06
303.15 K, x1 = 0.5089	1.285e-06
303.15 K, x1 = 0.613	1.085e-06
303.15 K, x1 = 0.691	9.67e-07
303.15 K, x1 = 0.7873	8.55e-07
303.15 K, x1 = 0.8796	7.75e-07
303.15 K, x1 = 0.9346	7.39e-07
303.15 K, x1 = 1	7.08e-07
313.15 K, x1 = 0.0802	2.858e-06
313.15 K, x1 = 0.1168	2.58e-06
313.15 K, x1 = 0.1965	2.082e-06
313.15 K, x1 = 0.2939	1.644e-06
313.15 K, x1 = 0.3995	1.321e-06
313.15 K, x1 = 0.5141	1.083e-06
313.15 K, x1 = 0.548	1.028e-06
313.15 K, x1 = 0.5971	9.61e-07
313.15 K, x1 = 0.6912	8.44e-07
313.15 K, x1 = 0.7876	7.52e-07
313.15 K, x1 = 0.9035	6.75e-07
313.15 K, x1 = 0.9358	6.58e-07
313.15 K, x1 = 1	6.34e-07

Conditions	mass density [kg/m3]
293.15 K, x1 = 0.085	824.62
293.15 K, x1 = 0.1145	826.65
293.15 K, x1 = 0.1854	831.55
293.15 K, x1 = 0.2862	838.56
293.15 K, x1 = 0.4123	847.4
293.15 K, x1 = 0.5087	854.22
293.15 K, x1 = 0.6157	861.84
293.15 K, x1 = 0.6835	866.67
293.15 K, x1 = 0.7846	873.96
293.15 K, x1 = 0.9071	882.86
293.15 K, x1 = 0.9274	884.35
293.15 K, x1 = 1	889.75
303.15 K, x1 = 0.0771	816.54
303.15 K, x1 = 0.1183	819.23
303.15 K, x1 = 0.192	824.09
303.15 K, x1 = 0.2983	831.16
303.15 K, x1 = 0.4502	841.37
303.15 K, x1 = 0.4593	841.99
303.15 K, x1 = 0.5089	845.34
303.15 K, x1 = 0.613	852.44
303.15 K, x1 = 0.691	857.8
303.15 K, x1 = 0.7873	864.46
303.15 K, x1 = 0.8796	870.9
303.15 K, x1 = 0.9346	874.8
303.15 K, x1 = 1	879.51
313.15 K, x1 = 0.0802	809.21
313.15 K, x1 = 0.1168	811.47
313.15 K, x1 = 0.1965	816.46
313.15 K, x1 = 0.2939	822.62
313.15 K, x1 = 0.3995	829.39
313.15 K, x1 = 0.5141	836.8
313.15 K, x1 = 0.548	838.99
313.15 K, x1 = 0.5971	842.2
313.15 K, x1 = 0.6912	848.37
313.15 K, x1 = 0.7876	854.78
313.15 K, x1 = 0.9035	862.6
313.15 K, x1 = 0.9358	864.8
313.15 K, x1 = 1	869.32
